According to the supplement of paper PMC10307832:

Key:
Experiment in all cases: relative viability (nuclei count vs DMSO), 5 days (fraction); higher = more cells survive
[1] = compound: C1=CC(=CC=C1NC(=S)NNC2=C(C=C(C=C2[N+](=O)[O-])C(F)(F)F)[N+](=O)[O-])F [Kobe2602] + N=C(N)NC(=N)NCCc1ccccc1 [Phenformin] (partner 250 µM)
Method in brief: (§1)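 Five library-drug doses in √10 steps were combined with a fixed anchor-drug dose, or a single drug was given alone, by pin tool to lung cancer cell lines in 1536-well plates the day after seeding. Nuclei were stained and counted after 5 days. Relative viability is the nuclei count in treated wells over that in vehicle wells, taken as the median of duplicate plates.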

[2] = compound: COc1cc2nccc(Oc3ccc(NC(=O)C4(C(=O)Nc5ccc(F)cc5)CC4)cc3)c2cc1OC [Cabozantinib] + CCNC(=O)c1noc(-c2cc(C(C)C)c(O)cc2O)c1-c1ccc(CN2CCOCC2)cc1 [Luminespib] (partner 0.01 µM)
Method in brief: as §1

[3] = compound: COc1cc2nccc(Oc3ccc(NC(=O)C4(C(=O)Nc5ccc(F)cc5)CC4)cc3)c2cc1OC [Cabozantinib] + C[C@@H](Oc1cc(-c2cnn(C3CCNCC3)c2)cnc1N)c1c(Cl)ccc(F)c1Cl [Crizotinib] (partner 1 µM)
Method in brief: as §1

[4] = compound: O[C@@H](COc1cccc2ncccc12)CN1CCN([C@@H]2c3ccccc3[C@@H]3[C@H](c4ccccc42)C3(F)F)CC1 [Zosuquidar] + CS(=O)(=O)CCNCc1ccc(-c2ccc3ncnc(Nc4ccc(OCc5cccc(F)c5)c(Cl)c4)c3c2)o1 [Lapatinib] (partner 2 µM)
Method in brief: as §1

Row | Cell Line | relative viability ([1]; first compound 0.2 µM) | relative viability ([1]; first compound 0.6325 µM) | relative viability ([1]; first compound 2 µM) | relative viability ([1]; first compound 6.325 µM) | relative viability ([1]; first compound 20 µM) | relative viability ([2]; first compound 0.02 µM) | relative viability ([2]; first compound 0.06325 µM) | relative viability ([2]; first compound 0.2 µM) | relative viability ([2]; first compound 0.6325 µM) | relative viability ([2]; first compound 2 µM) | relative viability ([3]; first compound 0.02 µM) | relative viability ([3]; first compound 0.06325 µM) | relative viability ([3]; first compound 0.2 µM) | relative viability ([3]; first compound 0.6325 µM) | relative viability ([3]; first compound 2 µM) | relative viability ([4]; first compound 0.01 µM) | relative viability ([4]; first compound 0.03162 µM) | relative viability ([4]; first compound 0.1 µM) | relative viability ([4]; first compound 0.3162 µM) | relative viability ([4]; first compound 1 µM)
1 | NCI-H2405 | 0.418 | 0.431 | 0.411 | 0.393 | 0.452 | 0.615 | 0.83 | 0.648 | 0.629 | 0.588 | 0.933 | 0.862 | 0.872 | 0.873 | 0.895 | 1.17 | 0.971 | 1.15 | 1.24 | 1.11
2 | NCI-H3122 | 0.425 | 0.402 | 0.378 | 0.394 | 0.364 | 0.111 | 0.102 | 0.0937 | 0.0876 | 0.101 | 0.272 | 0.301 | 0.271 | 0.297 | 0.309 | 0.997 | 0.906 | 1 | 1.01 | 1.01
3 | PC-3 [JPC-3] | 0.489 | 0.508 | 0.525 | 0.464 | 0.502 | 0.857 | 0.803 | – | 0.825 | 0.777 | 1.07 | 1.1 | – | 0.919 | 0.967 | 0.449 | 0.429 | 0.401 | 0.433 | 0.447
4 | PC-14 | 0.59 | 0.804 | 0.558 | 0.699 | 0.592 | 0.198 | 0.139 | – | 0.237 | 0.179 | 0.983 | 0.911 | – | 0.894 | 0.788 | 0.316 | 0.284 | 0.259 | 0.416 | 0.288
5 | RERF-LC-KJ | 0.437 | 0.413 | 0.395 | 0.413 | 0.377 | 1.32 | 1.31 | 1.19 | 1.19 | 1.23 | 0.868 | 0.895 | 0.917 | 0.802 | 0.855 | 0.786 | 0.902 | 0.841 | 0.943 | 0.811
6 | SK-LU-1 | 0.618 | 0.682 | 0.584 | 0.526 | 0.597 | 0.225 | 0.209 | 0.207 | 0.192 | 0.21 | – | 0.941 | 0.772 | 0.872 | 0.857 | 0.905 | 0.918 | 1.02 | 0.79 | 1.01
7 | SK-MES-1 | 0.676 | 0.715 | 0.683 | 0.589 | 0.455 | 0.835 | 1 | 0.9 | 0.875 | 0.729 | 1.13 | 1.14 | 1.02 | 1.03 | 0.825 | 0.448 | 0.401 | 0.445 | 0.495 | 0.517
8 | SW 1573 | 0.346 | 0.47 | 0.378 | 0.346 | 0.168 | 0.22 | 0.223 | 0.221 | 0.151 | 0.122 | 0.927 | 0.873 | 0.948 | 0.822 | 0.671 | 1.09 | 0.985 | 1.08 | 1.4 | 1.01
